Experimental data reported in patent publication US8729109B2, “3-(4-(5-phenyl-1 ,2,4-oxadiazol-3-yl)phenoxy)propan-2-ol derivatives as sphingosine-1phosphate receptors modulators” (Allergan, Inc., priority 2011, dated 2014).

Assays:
human S1P1 receptor = biological target: T1, human S1P1 receptor (Homo sapiens, UniProt P21453); assay: GTP γ35S binding assay, S1P1 activity; type: biochemical; conditions: membranes of cells stably expressing S1P1 receptor, agonist potency
T1 construct: expressed in transfected cells; membranes used
T1 sequence (P21453 whole entry): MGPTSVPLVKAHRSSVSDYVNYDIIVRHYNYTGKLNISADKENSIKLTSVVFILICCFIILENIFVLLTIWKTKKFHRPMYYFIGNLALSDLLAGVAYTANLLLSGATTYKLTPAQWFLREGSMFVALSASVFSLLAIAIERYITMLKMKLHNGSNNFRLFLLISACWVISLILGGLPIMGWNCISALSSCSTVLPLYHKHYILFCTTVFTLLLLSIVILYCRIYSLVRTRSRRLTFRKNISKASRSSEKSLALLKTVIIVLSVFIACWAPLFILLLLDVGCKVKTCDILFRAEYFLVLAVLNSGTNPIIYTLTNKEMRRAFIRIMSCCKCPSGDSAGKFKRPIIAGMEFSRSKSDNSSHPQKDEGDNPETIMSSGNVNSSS
Experimental: Compounds were synthesized and tested for S1P1 activity using the GTP γ^35S binding assay. These compounds may be assessed for their ability to activate or block activation of the human S1P1 receptor in cells stably expressing the S1P1 receptor.
GTP γ^35S binding was measured in the medium containing (mM) HEPES 25, pH 7.4, MgCl2 10, NaCl 100, dithitothreitol 0.5, digitonin 0.003%, 0.2 nM GTP γ^35S, and 5 μg membrane protein in a volume of 150 μl. Test compounds were included in the concentration range from 0.08 to 5,000 nM unless indicated otherwise. Membranes were incubated with 100 μM 5′-adenylylimmidodiphosphate for 30 min, and subsequently with 10 μM GDP for 10 min on ice. Drug solutions and membrane were mixed, and then reactions were initiated by adding GTP γ^35S and continued for 30 min at 25° C. Reaction mixtures were filtered over Whatman GF/B filters under vacuum, and washed three times with 3 mL of ice-cold buffer (HEPES 25, pH 7.4, MgCl2 10 and NaCl 100). Filters were dried and mixed with scintillant, and counted for ^35S activity using a β-counter. Agonist-induced GTP γ^35S binding was obtained by subtracting that in the absence of agonist. Binding data were analyzed using a non-linear regression method. In case of antagonist assay, the reaction mixture contained 10 nM […] in the presence of test antagonist at concentrations ranging from 0.08 to 5000 nM.

lymphocytes in the blood = assay: Lymphopenia assay in mice; type: in vivo; conditions: female C57BL6 mice, 10 mg/Kg subcutaneously, after 96 h of drug application (FIG. 1)
Experimental: Lymphopenia Assay in Mice
Compound 1, 5-{3-[3-chloro-4-(2,3-dihydroxypropoxy)phenyl]-1,2,4-oxadiazol-5-yl}-2-isopropoxybenzonitrile, was prepared in a solution containing 3% (w/v) 2-hydroxy propyl β-cyclodextrin (HPBCD) and 1% DMSO to a final concentration of 1 mg/ml, and subcutaneously injected to female C57BL6 mice (CHARLES RIVERS) weighing 20-25 g at the dose of 10 mg/Kg. Blood samples were obtained by puncturing the submandibular skin with a Goldenrod animal lancet at 24, 48, 72, and 96 hrs post drug application. Blood was collected into microvettes (SARSTEDT) containing EDTA tripotassium salt. Lymphocytes in blood samples were counted using a HEMAVET Multispecies Hematology System, HEMAVET HV950FS (Drew Scientific Inc.). (Hale, J. et al Bioorg. & Med. Chem. Lett. 14 (2004) 3351).The results are presented in FIG. 1: the number of lymphocytes in the blood was reduced by Compound 1 after 96 h of drug application.

EC50 (human S1P1 receptor) | Structure (SMILES) | number of lymphocytes in the blood (lymphocytes in the blood)
10.3 nM | CC(C)Oc1ccc(-c2nc(-c3ccc(OCC(O)CO)c(Cl)c3)no2)cc1C#N (centres unmarked) [Compound 1, 5-{3-[3-chloro-4-(2,3-dihydroxypropoxy)phenyl]-1,2,4-oxadiazol-5-yl}-2-isopropoxybenzonitrile] | reduced
20.4 nM | COP(=O)(O)OCC(O)COc1ccc(-c2noc(-c3ccc(OC(C)C)c(C#N)c3)n2)cc1Cl (centres unmarked) [Compound 3, 3-{2-chloro-4-[5-(3-cyano-4-isopropoxyphenyl)-1,2,4-oxadiazol-3-yl]phenoxy}-2-hydroxypropyl methyl hydrogen phosphate] | 
4580 nM | CC(C)Oc1ccc(-c2nc(-c3ccc(OCC(O)COP(=O)(O)O)c(Cl)c3)no2)cc1C#N (centres unmarked) [Compound 4, 3-{2-chloro-4-[5-(3-cyano-4-isopropoxyphenyl)-1,2,4-oxadiazol-3-yl]phenoxy}-2-hydroxypropyl dihydrogen phosphate] | 

Structure (SMILES) | EC50 (human S1P1 receptor) | number of lymphocytes in the blood (lymphocytes in the blood)
COP(=O)(OC)OCC(O)COc1ccc(-c2noc(-c3ccc(OC(C)C)c(C#N)c3)n2)cc1Cl (centres unmarked) [Compound 2, 3-{2-chloro-4-[5-(3-cyano-4-isopropoxyphenyl)-1,2,4-oxadiazol-3-yl]phenoxy}-2-hydroxypropyl dimethyl phosphate] | 2.88 nM | 
